Biological target: T1, human TLR7 (Homo sapiens, UniProt Q9NYK1)
T1 sequence (Q9NYK1 27-1049): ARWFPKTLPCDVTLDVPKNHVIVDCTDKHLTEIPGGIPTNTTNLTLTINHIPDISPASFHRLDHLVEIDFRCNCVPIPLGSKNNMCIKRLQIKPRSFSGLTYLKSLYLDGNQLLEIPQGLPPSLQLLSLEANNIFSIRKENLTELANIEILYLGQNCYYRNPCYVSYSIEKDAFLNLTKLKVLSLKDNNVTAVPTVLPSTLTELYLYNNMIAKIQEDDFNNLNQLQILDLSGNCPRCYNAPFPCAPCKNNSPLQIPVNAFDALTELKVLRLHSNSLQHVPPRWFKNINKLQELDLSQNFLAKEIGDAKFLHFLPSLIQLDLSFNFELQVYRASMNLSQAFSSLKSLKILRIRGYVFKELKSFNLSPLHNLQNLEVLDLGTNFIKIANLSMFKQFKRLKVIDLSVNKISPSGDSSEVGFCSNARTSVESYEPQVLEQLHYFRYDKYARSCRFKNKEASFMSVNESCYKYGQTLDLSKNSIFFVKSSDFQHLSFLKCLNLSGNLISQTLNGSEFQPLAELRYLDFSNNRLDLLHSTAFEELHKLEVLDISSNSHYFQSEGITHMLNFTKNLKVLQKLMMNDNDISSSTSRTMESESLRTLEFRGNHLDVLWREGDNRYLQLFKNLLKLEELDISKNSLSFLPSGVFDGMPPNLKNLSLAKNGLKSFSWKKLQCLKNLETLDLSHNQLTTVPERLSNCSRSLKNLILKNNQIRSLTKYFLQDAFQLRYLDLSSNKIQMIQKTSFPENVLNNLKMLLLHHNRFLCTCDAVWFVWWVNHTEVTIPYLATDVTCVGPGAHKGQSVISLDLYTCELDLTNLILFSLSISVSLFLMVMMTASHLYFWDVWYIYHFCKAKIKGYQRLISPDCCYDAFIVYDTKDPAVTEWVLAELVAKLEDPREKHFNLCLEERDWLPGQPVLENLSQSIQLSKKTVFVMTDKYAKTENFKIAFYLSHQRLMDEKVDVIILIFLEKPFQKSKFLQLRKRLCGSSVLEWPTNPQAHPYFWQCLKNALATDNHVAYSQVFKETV
Experiment: HEK293-Blue-hTLR-7 cells assay (SEAP reporter, R848 stimulation)
Type: cell-based
Conditions: HEK293-Blue-hTLR7 cells, R848 ligand, 20 hrs incubation
Excerpt: A stable HEK293-Blue-hTLR-7 cell line was purchased from InvivoGen (Cat. #: hkb-htlr7, San Diego, Calif., USA). These cells were originally designed for studying the stimulation of human TLR7 by monitoring the activation of NF-κB. A SEAP (secreted embryonic alkaline phosphatase) reporter gene was placed under the control of the IFN-β minimal promoter fused to five NF-κB and AP-1-binding sites. The SEAP was induced by activating NF-κB and AP-1 via stimulating HEK-Blue hTLR7 cells with TLR7 ligands. Therefore the reporter expression was declined by TLR7 antagonist under the stimulation of a ligand, such as R848 (Resiquimod), for incubation of 20 hrs. The cell culture supernatant SEAP reporter activity was determined using QUANTI-Blue™ kit (Cat. #: rep-qb1, Invivogen, San Diego, Ca, USA) at a wavelength of 640 nm, a detection medium that turns purple or blue in the presence of alkaline phosphatase.
HEK293-Blue-hTLR7 cells were incubated at a density of 250,000˜450,000 cells/mL in a volume of 170 μL in a 96-well plate in Dulbecco's Modified Eagle's medium (DMEM) containing 4.5 g/L glucose, 50 U/mL penicillin, […], […], 2 mM L-glutamine, 10% (v/v) heat-inactivated fetal bovine serum with addition of 20 μL test compound in a serial dilution in the presence of final DMSO at 1% and 10 μL of 20 uM R848 in above DMEM, perform incubation under 37° C. in a CO2 incubator for 20 hrs. Then 20 μL of the supernatant from each well was incubated with 180 μL Quanti-blue substrate solution at 37° C. for 2 hrs and the absorbance was read at 620˜655 nm using a spectrophotometer. The signalling pathway that TLR7 activation leads to downstream NF-κB activation has been widely accepted, and therefore similar reporter assay was modified for evaluating TLR7 antagonist.

IC50	Compound
460 nM	C[C@@H]1CN(c2ccc(C#N)n3nccc23)C[C@H](CN2CCCC3(CNC3)C2)O1 [Example 33, 4-[(2S,6R)-2-(2,6-diazaspiro[3.5]nonan-6-ylmethyl)-6-methyl-morpholin-4-yl]pyrazolo[1,5-a]pyridine-7-carbonitrile]
650 nM	C[C@@H]1CN(c2ccc(C#N)n3nccc23)C[C@H](CN2CC3(CCNC3)CC2=O)O1 (stereo partly drawn) [Example 20, 4-[(2R,6R)-2-methyl-6-[(3-oxo-2,7-diazaspiro[4.4]nonan-2-yl)methyl]morpholin-4-yl]pyrazolo[1,5-a]pyridine-7-carbonitrile]
250 nM	C[C@@H]1CN(c2ccc(C#N)n3nccc23)C[C@H](CN2CC3CCCNC3C2)O1 (stereo partly drawn) [Example 45, 4-[(2S,6R)-2-(1,2,3,4,4a,5,7,7a-octahydropyrrolo[3,4-b]pyridin-6-ylmethyl)-6-methyl-morpholin-4-yl]pyrazolo[1,5-a]pyridine-7-carbonitrile]
78 nM	C[C@@H]1CN(c2ccc(C#N)n3nccc23)C[C@H](CN2CCC3NCCC3C2)O1 (stereo partly drawn) [Example 41, 4-[(2S,6R)-2-(1,2,3,3a,4,6,7,7a-octahydropyrrolo[3,2-c]pyridin-5-ylmethyl)-6-methyl-morpholin-4-yl]pyrazolo[1,5-a]pyridine-7-carbonitrile]
89 nM	C[C@@H]1CN(c2ccc(C#N)n3nccc23)C[C@H](CN2CC[C@H](N)[C@H](C)C2)O1 [Example 74, 4-[(2S,6R)-2-[[(3R,4S)-4-amino-3-methyl-1-piperidyl]methyl]-6-methyl-morpholin-4-yl]pyrazolo[1,5-a]pyridine-7-carbonitrile]
230 nM	C[C@@H]1CN(c2ccc(C#N)n3nccc23)C[C@H](CN2CCC3(CCCN3)CC2)O1 [Example 53, 4-[(2S,6R)-2-(1,8-diazaspiro[4.5]decan-8-ylmethyl)-6-methyl-morpholin-4-yl]pyrazolo[1,5-a]pyridine-7-carbonitrile]
83 nM	C[C@@H]1CN(c2ccc(C#N)n3nccc23)C[C@H](CN2CC3(CCCNC3)C2)O1 [Example 10, 4-[(2S,6R)-2-(2,8-diazaspiro[3.5]nonan-2-ylmethyl)-6-methyl-morpholin-4-yl]pyrazolo[1,5-a]pyridine-7-carbonitrile]
89 nM	C[C@@H]1CN(c2ccc(C#N)n3nccc23)C[C@H](CN2CCC(N)CC2)O1 [Example 17, 4-[(2S,6R)-2-[(4-amino-1-piperidyl)methyl]-6-methyl-morpholin-4-yl]pyrazolo[1,5-a]pyridine-7-carbonitrile]
200 nM	C[C@@H]1CN(c2ccc(C#N)n3nccc23)C[C@H](CN2CCC3(CCNC3)C2)O1 (stereo partly drawn) [Example 6, 4-[(2S,6R)-2-(2,7-diazaspiro[4.4]nonan-2-ylmethyl)-6-methyl-morpholin-4-yl]pyrazolo[1,5-a]pyridine-7-carbonitrile]
46 nM	C[C@@H]1CN(c2ccc(C#N)n3nccc23)C[C@H](CN2CC3CCC2CN3)O1 (stereo partly drawn) [Example 30, 4-[(2S,6R)-2-(2,5-diazabicyclo[2.2.2]octan-2-ylmethyl)-6-methyl-morpholin-4-yl]pyrazolo[1,5-a]pyridine-7-carbonitrile]
95 nM	C[C@@H]1CN(c2ccc(C#N)n3nccc23)C[C@H](CN2CCNC3(CC3)C2)O1 [Example 40, 4-[(2S,6R)-2-(4,7-diazaspiro[2.5]octan-7-ylmethyl)-6-methyl-morpholin-4-yl]pyrazolo[1,5-a]pyridine-7-carbonitrile]
710 nM	C[C@@H]1CN(c2ccc(C#N)n3nccc23)C[C@H](CN2CC[C@@H]3CNCC32)O1 (stereo partly drawn) [Example 62, 4-[(2R,6S)-2-methyl-6-[[cis-(3aR,6aR)-3,3a,4,5,6,6a-hexahydro-2H-pyrrolo[3,4-b]pyrrol-1-yl]methyl]morpholin-4-yl]pyrazolo[1,5-a]pyridine-7-carbonitrile]
160 nM	C[C@@H]1CN(c2ccc(C#N)n3nccc23)C[C@H](CN2CCN(C3CCNCC3)CC2Cc2ccccc2)O1 (stereo partly drawn) [Example 77, 4-[(2S,6R)-2-[[2-benzyl-4-(4-piperidyl)piperazin-1-yl]methyl]-6-methyl-morpholin-4-yl]pyrazolo[1,5-a]pyridine-7-carbonitrile]
160 nM	C[C@@H]1CN(c2ccc(C#N)n3nccc23)C[C@H](CN2CC3(CC(N)C3)C2)O1 [Example 11, 4-[(2S,6R)-2-[(6-amino-2-azaspiro[3.3]heptan-2-yl)methyl]-6-methyl-morpholin-4-yl]pyrazolo[1,5-a]pyridine-7-carbonitrile]
7 nM	C[C@@H]1CN(c2ccc(C#N)n3nccc23)C[C@H](CN2CCNCC2Cc2ccccc2)O1 (stereo partly drawn) [Example 59, 4-[(2S,6R)-2-[(2-benzylpiperazin-1-yl)methyl]-6-methyl-morpholin-4-yl]pyrazolo[1,5-a]pyridine-7-carbonitrile]
200 nM	C[C@@H]1CN(c2ccc(C#N)n3nccc23)C[C@H](CN2CCC3(CCNCC3)C2)O1 [Example 18, 4-[(2S,6R)-2-(2,8-diazaspiro[4.5]decan-2-ylmethyl)-6-methyl-morpholin-4-yl]pyrazolo[1,5-a]pyridine-7-carbonitrile]
100 nM	C[C@@H]1CN(c2ccc(C#N)n3nccc23)C[C@H](CN2CC3(CCNCC3)C2)O1 [Example 24, 4-[(2S,6R)-2-(2,7-diazaspiro[3.5]nonan-2-ylmethyl)-6-methyl-morpholin-4-yl]pyrazolo[1,5-a]pyridine-7-carbonitrile]
150 nM	C[C@@H]1CN(c2ccc(C#N)n3nccc23)C[C@H](CN2CCC(N)(c3ccccc3)CC2)O1 [Example 73, 4-[(2S,6R)-2-[(4-amino-4-phenyl-1-piperidyl)methyl]-6-methyl-morpholin-4-yl]pyrazolo[1,5-a]pyridine-7-carbonitrile]
270 nM	C[C@@H]1CN(c2ccc(C#N)n3nccc23)C[C@H](CN2CC3CCNCC32)O1 (stereo partly drawn) [Example 56, 4-[(2S,6R)-2-(3,8-diazabicyclo[4.2.0]octan-8-ylmethyl)-6-methyl-morpholin-4-yl]pyrazolo[1,5-a]pyridine-7-carbonitrile]
410 nM	C[C@@H]1CN(c2ccc(C#N)n3nccc23)C[C@H](CN2CCCC3(CCNCC3)C2)O1 [Example 32, 4-[(2S,6R)-2-(2,9-diazaspiro[5.5]undecan-2-ylmethyl)-6-methyl-morpholin-4-yl]pyrazolo[1,5-a]pyridine-7-carbonitrile]
87 nM	C[C@@H]1CN(c2ccc(C#N)n3nccc23)C[C@H](CN2CCC(N)C(F)(F)C2)O1 (stereo partly drawn) [Example 34, 4-[(2S,6R)-2-[(4-amino-3,3-difluoro-1-piperidyl)methyl]-6-methyl-morpholin-4-yl]pyrazolo[1,5-a]pyridine-7-carbonitrile]

Compound	IC50
C[C@@H]1CN(c2ccc(C#N)n3nccc23)C[C@H](CN2C3CCCC2CC(N)C3)O1 (stereo partly drawn) [Example 65, Endo-4-[(2S,6R)-2-[(3-amino-9-azabicyclo[3.3.1]nonan-9-yl)methyl]-6-methyl-morpholin-4-yl]pyrazolo[1,5-a]pyridine-7-carbonitrile]	460 nM
C[C@@H]1CN(c2ccc(C#N)n3nccc23)C[C@H](CN2C3CCCC2CC(N)C3)O1 (stereo partly drawn) [Example 66, Exo-4-[(2S,6R)-2-[(3-amino-9-azabicyclo[3.3.1]nonan-9-yl)methyl]-6-methyl-morpholin-4-yl]pyrazolo[1,5-a]pyridine-7-carbonitrile]	490 nM

— patent publication US20220112187A1, “PYRAZOLOPYRIDINE AMINE COMPOUNDS FOR THE TREATMENT OF AUTOIMMUNE DISEASE” (Hoffmann-La Roche Inc., priority 2018, published 2022)
